In publication PMC3501123 (Journal of medicinal chemistry, 2012):

Experiments:
C57BL/6 mice [1] = assay: noxious thermal sensitivity, Hargreaves paw withdrawal latency; type: in vivo, mouse
C57BL/6 mice [2] = assay: telemetry of heart rate and body temperature; type: in vivo, mouse; conditions: 5000 nmol/kg, oral
human A1AR [3] = molecular target: T1, human A1AR (Homo sapiens, UniProt P30542); assay: cAMP accumulation assay; type: cell-based; conditions: for agonist efficacy in cAMP accumulation assay: compared to compound 3, highest concentration tested; for effect of αβ-met-ADP on potency: inclusion of 10 μM αβ-met-ADP (NT5E/CD73 inhibitor)
T1 sequence (P30542 1-326): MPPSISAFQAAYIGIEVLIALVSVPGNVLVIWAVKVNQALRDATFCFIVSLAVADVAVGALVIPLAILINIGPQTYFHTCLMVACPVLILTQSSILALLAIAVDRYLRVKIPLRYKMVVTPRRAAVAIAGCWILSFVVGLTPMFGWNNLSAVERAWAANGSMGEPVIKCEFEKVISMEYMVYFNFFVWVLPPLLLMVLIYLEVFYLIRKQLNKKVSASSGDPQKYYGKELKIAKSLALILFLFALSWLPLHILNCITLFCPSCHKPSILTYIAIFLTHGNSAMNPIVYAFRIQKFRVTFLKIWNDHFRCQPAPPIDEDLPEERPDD

human A1AR [4] = molecular target: T1, human A1AR; assay: Ca2+ mobilization assay with chimeric G proteins; type: cell-based; conditions: Emax normalized to Emax of adenosine
human A2AAR = human A2AAR (Homo sapiens, UniProt P29274); assay: radioligand binding assay
human A3AR = molecular target: T2, human A3AR (Homo sapiens, UniProt P0DMS8); assay: radioligand binding assay
T2 sequence (P0DMS8 1-318): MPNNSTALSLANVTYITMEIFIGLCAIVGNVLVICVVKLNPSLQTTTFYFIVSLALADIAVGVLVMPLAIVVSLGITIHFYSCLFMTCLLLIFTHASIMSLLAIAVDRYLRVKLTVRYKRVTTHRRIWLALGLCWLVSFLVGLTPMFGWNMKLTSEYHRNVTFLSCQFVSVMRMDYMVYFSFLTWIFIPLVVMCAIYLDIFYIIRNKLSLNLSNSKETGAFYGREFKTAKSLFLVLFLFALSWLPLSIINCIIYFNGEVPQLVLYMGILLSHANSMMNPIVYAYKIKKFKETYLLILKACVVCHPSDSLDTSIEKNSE

human A2BAR = molecular target: T3, human A2BAR (Homo sapiens, UniProt P29275); assay: radioligand binding assay; conditions: read-out: % inhibition at A2B, 50 μM
T3 sequence (P29275 1-332): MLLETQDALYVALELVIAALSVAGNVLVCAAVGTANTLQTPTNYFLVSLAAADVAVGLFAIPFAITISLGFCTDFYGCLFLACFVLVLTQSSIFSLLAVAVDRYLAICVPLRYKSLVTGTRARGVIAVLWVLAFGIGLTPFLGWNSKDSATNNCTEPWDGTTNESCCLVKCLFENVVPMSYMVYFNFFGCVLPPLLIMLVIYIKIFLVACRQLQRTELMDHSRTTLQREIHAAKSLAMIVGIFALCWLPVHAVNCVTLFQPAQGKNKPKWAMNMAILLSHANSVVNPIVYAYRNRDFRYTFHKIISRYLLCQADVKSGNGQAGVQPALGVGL

[5] = oral, 50, 500 or 5000 nmol/kg, wild-type mice

Chain of human A2AAR (P29274 whole entry): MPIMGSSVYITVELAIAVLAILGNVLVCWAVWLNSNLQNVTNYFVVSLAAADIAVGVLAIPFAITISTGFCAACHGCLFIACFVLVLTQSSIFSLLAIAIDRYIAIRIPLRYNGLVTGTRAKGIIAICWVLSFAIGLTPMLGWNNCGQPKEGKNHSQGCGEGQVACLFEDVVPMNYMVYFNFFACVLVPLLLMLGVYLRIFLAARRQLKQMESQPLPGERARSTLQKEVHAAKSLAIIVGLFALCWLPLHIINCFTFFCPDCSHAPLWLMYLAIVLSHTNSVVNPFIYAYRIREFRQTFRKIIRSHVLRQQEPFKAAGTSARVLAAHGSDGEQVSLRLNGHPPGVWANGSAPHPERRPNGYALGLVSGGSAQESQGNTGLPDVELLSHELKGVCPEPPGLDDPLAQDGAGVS

| Structure (SMILES) | effect on noxious thermal sensitivity (C57BL/6 mice [1]; [5]) | effect on body temperature (C57BL/6 mice [2]; A1AR–/– mice) | effect on heart rate (C57BL/6 mice [2]; A1AR–/– mice) | effect on body temperature (C57BL/6 mice [2]; wild-type mice) | effect on heart rate (C57BL/6 mice [2]; wild-type mice) | agonist efficacy in cAMP accumulation assay (human A1AR [3]) | effect of αβ-met-ADP on potency (human A1AR [3]) | agonist efficacy in Ca2+ mobilization assay (human A1AR [4]) | selectivity for A1AR over A2AAR (human A2AAR) | selectivity for A1AR over A3AR (human A3AR) | inhibition at 50 µM (human A2BAR) | thermal antinociceptive effect in A1AR knockout mice (C57BL/6 mice [1]; A1AR–/– mice, 5 nmol, IT injection) | effect on noxious thermal sensitivity (C57BL/6 mice [1]; intrathecal (IT) or intravenous (IV) injection, mice) |
| --- | --- | --- | --- | --- | --- | --- | --- | --- | --- | --- | --- | --- | --- |
| OC[C@H]1O[C@@H](n2cnc3c(NC4CCCC4)ncnc32)[C@H](O)[C@@H]1O [Compound 5, N^6-cyclopentyl adenosine, reference compound] | effects of 3a were similar to 5 | but not in A1AR^–/– mice | modest increase in heart rate | statistically significant decrease | statistically significant decrease |  |  |  |  |  |  |  |  |
| Nc1ncnc2c1ncn2[C@@H]1O[C@H](CO)[C@@H](OP(=O)(O)O)[C@H]1O [3′-AMP, adenosine 3′-monophosphate] |  |  |  |  |  | full agonists | did not significantly alter the potencies |  |  |  |  |  |  |
| O=P([O-])([O-])OC[C@H]1O[C@@H](n2cnc3c(NC4CCCC4)nc(Cl)nc32)[C@H](O)[C@@H]1O.[Na+].[Na+] [Compound 3d, Sodium ((2R,3S,4R,5R)-5-(2-Chloro-6-(cyclopentylamino)-9H-purin-9-yl)-3,4-dihydroxytetrahydrofuran-2-yl)methyl Phosphate] |  |  |  |  |  |  |  | potent full agonists | > 100 fold | > 10 fold |  |  |  |
| Nc1ncnc2c1ncn2[C@@H]1O[C@H](CO)[C@@H](O)[C@H]1OP(=O)(O)O [2′-AMP, adenosine 2′-monophosphate] |  |  |  |  |  | full agonists | did not significantly alter the potencies |  |  |  |  |  |  |
| COP(=O)(OC)OC[C@H]1O[C@@H](n2cnc3c(NC4CCCC4)nc(Cl)nc32)[C@H](O)[C@@H]1O [Compound 3a, ((2R,3S,4R,5R)-5-(2-Chloro-6-(cyclopentylamino)-9H-purin-9-yl)-3,4-dihydroxytetrahydrofuran-2-yl)methyl Dimethyl Phosphate] | dose-dependently inhibited noxious thermal sensitivity | negligible effects | negligible effects | negligible effects | negligible effects | full agonist |  | potent full agonists | > 100 fold | > 10 fold | < 10% | completely abolished | marked and dose-dependent inhibition of noxious thermal sensitivity |
